This is an account of results in PubChem BioAssay (NCI).

Molecules are shown by their SMILES. Several values for one entry are separate records, joined by “and”; a condition that tells them apart may be missing. Equal values may be shown once.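 Briefly, cells in 96-well plates were exposed to five compound concentrations for 48 h, and endpoints were estimated by linear interpolation. The concentration for 50% growth inhibition is given as GI50. TGI: total growth inhibition.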

Some test systems named below: KM20L2 colon; LXFL 529 NSCLC; RXF-631 renal; SNB-78 CNS; XF 498 CNS; DLD-1 colon; MDA-MB-435; MDA-N; P388 leukemia; P388/ADR leukemia.
Test in all cases: NCI tumour cell line growth inhibition, 48 h

Regarding `COC(=O)C1=CC2OC13CC1CCC3(C2=O)C1(C)C` (centres undefined), the TGI in the assay on KM20L2 colon turned out to be 27.1 µM; in the assay on LXFL 529 NSCLC, 16.7 µM; in the assay with RXF-631 renal, 28 µM; in the assay on SNB-78 CNS, 36.5 µM; in the assay on XF 498 CNS, 13.4 µM.
Consider `CCC(=C(c1ccc(OCc2ccccc2)cc1)c1ccc(OCc2ccccc2)cc1)c1ccc(OC)cc1`, for which the TGI in the assay with DLD-1 colon, with KM20L2 colon, with LXFL 529 NSCLC, in the assay on SNB-78 CNS and in the assay with XF 498 CNS was greater than 100 µM throughout.
As for `CCOC(=O)C1=C(C)N(NC(=O)c2ccccc2)C2(O)CCCC12C(=O)OCC` (centres undefined), the TGI in the assay with KM20L2 colon, in the assay with LXFL 529 NSCLC, with RXF-631 renal and in the assay on XF 498 CNS was greater than 100 µM in each case.
In the case of `COC(=O)C1C(=O)O[C@@H](c2ccc(OC)cc2OC)C1C(=O)OC` (some centres undefined), the TGI in the assay on DLD-1 colon, in the assay with KM20L2 colon, with LXFL 529 NSCLC, in the assay with SNB-78 CNS and with XF 498 CNS was greater than 100 µM in each case.
For `Clc1ccc2nc(CCSCCc3nc4ccc(Cl)cc4[nH]3)[nH]c2c1`, the TGI in the assay on DLD-1 colon turned out to be 33.8 µM; in the assay on LXFL 529 NSCLC, 19 µM; in the assay on RXF-631 renal, 21.6 µM; in the assay on XF 498 CNS, 27.5 µM.
Take `Cn1c2cccc3nnc4cccc(c4c32)n1C`: the TGI in the assay with DLD-1 colon, in the assay on KM20L2 colon, in the assay on LXFL 529 NSCLC, with RXF-631 renal, with SNB-78 CNS and in the assay on XF 498 CNS was greater than 100 µM throughout.
`O=C(CC1(O)C(=O)Nc2c(Cl)cc(Cl)cc21)c1ccc2ccccc2c1` (centres undefined): the TGI in the assay on DLD-1 colon came to 26.7 µM; in the assay with KM20L2 colon, 11.4 µM; in the assay on LXFL 529 NSCLC it was 21.3 µM; in the assay with RXF-631 renal, 20.6 µM; in the assay with SNB-78 CNS, 36.5 µM; with XF 498 CNS, 25.2 µM.
For `Cc1ccc2[nH]c(=O)c(C(C#N)c3ccccc3)nc2c1` (centres undefined), the TGI is greater than 100 µM in the assay with DLD-1 colon; 92.3 µM in the assay with KM20L2 colon; greater than 100 µM in the assay on LXFL 529 NSCLC; greater than 100 µM with RXF-631 renal; 80.1 µM with SNB-78 CNS.
Regarding `CCC[CH2][Sn]([CH2]CCC)([S]C1=NCCS1)[S]C1=NCCS1`, the GI50 is 0.275 µM with DLD-1 colon; 1.35 µM in the assay with KM20L2 colon; 0.0423 µM with LXFL 529 NSCLC; 0.124 µM with SNB-78 CNS; 0.159 µM in the assay with XF 498 CNS. In addition, the TGI was 1.31 µM in the assay on DLD-1 colon; 2.88 µM in the assay with KM20L2 colon; 0.169 µM with LXFL 529 NSCLC; 0.946 µM in the assay on SNB-78 CNS; 0.678 µM in the assay on XF 498 CNS.
Consider `O=C1c2ccccc2C(=O)c2nc(-c3ccccc3)c(-c3ccccc3)nc21`, for which the TGI in the assay with DLD-1 colon, with KM20L2 colon, in the assay with LXFL 529 NSCLC, with RXF-631 renal, in the assay on SNB-78 CNS and in the assay with XF 498 CNS was greater than 100 µM each time.
Turning to `C=CCN(N=O)C(=O)N(CCC)CCCCC(NC(C)=O)C(=O)NCc1ccccc1` (centres undefined), the TGI in the assay on KM20L2 colon, in the assay with LXFL 529 NSCLC, with RXF-631 renal and with XF 498 CNS was greater than 100 µM in each case.
As for `COc1ccc2c(c1)[n+]([O-])c(-c1nc3ccccc3s1)c(N)[n+]2[O-]`, the TGI in the assay on DLD-1 colon, in the assay with KM20L2 colon, with LXFL 529 NSCLC, with RXF-631 renal and in the assay on SNB-78 CNS was greater than 100 µM in each case.
With `Cc1ccc(C2=NO[C@@H]3C(=O)N(c4ccc(Cc5ccc(N6C(=O)[C@H]7C(c8ccc(C)cc8)=NO[C@H]7C6=O)cc5)cc4)C(=O)[C@H]23)cc1`, the TGI in the assay on DLD-1 colon, in the assay on KM20L2 colon, with LXFL 529 NSCLC, with RXF-631 renal, with SNB-78 CNS and in the assay with XF 498 CNS was greater than 100 µM throughout.
Regarding `CNC1C(O)CC(OC2C/C=C(\C)C/C(C)=C/C=C/CCC(C)CNC(=O)/C=C/C=C/C2C)OC1C` (centres undefined), the TGI with DLD-1 colon is 1.45 µM; in the assay with LXFL 529 NSCLC it was 0.308 µM; in the assay with MDA-MB-435, 0.82 µM; with MDA-N it was 0.367 µM; with RXF-631 renal, 0.401 µM; with SNB-78 CNS, 3.43 µM. This compound also gave a TGI in the assay on XF 498 CNS of 3.76 µM.
Take `CSC(=S)NNC(=O)c1ccncc1`: the TGI was 34.6 µM in the assay with DLD-1 colon; greater than 100 µM in the assay with KM20L2 colon; 29.3 µM with LXFL 529 NSCLC; greater than 100 µM with RXF-631 renal; greater than 100 µM with SNB-78 CNS; 50 µM with XF 498 CNS.
Regarding `Nc1ccn([C@@H]2C=C(CO)[C@@H](O)[C@H]2O)c(=O)n1`, the GI50 with DLD-1 colon is 0.0625 µM; in the assay with MDA-MB-435 it was 0.0377 µM; in the assay on MDA-N, 0.05 µM; with SNB-78 CNS, 63.6 µM; in the assay with XF 498 CNS, less than 0.0625 µM. Further, the TGI is 500 µM and > 625 µM with DLD-1 colon; 500 µM and > 625 µM in the assay with KM20L2 colon; 500 µM with MDA-MB-435; 500 µM in the assay with MDA-N; 1.84 µM in the assay with P388 leukemia; 2.19 µM with P388/ADR leukemia. The TGI with SNB-78 CNS was 156 µM and > 625 µM.
Consider `COc1ccccc1NC(=O)C1=C(C)NC(C)=C(C(=O)Nc2ccccc2OC)C1c1ccccc1OC`, for which the TGI in the assay with DLD-1 colon, in the assay on KM20L2 colon, in the assay with LXFL 529 NSCLC, in the assay with RXF-631 renal and in the assay on SNB-78 CNS was greater than 100 µM in each case.
For the compound `COC(=O)C1=CC2OC1(C)C1(CC1)C2=O` (centres undefined), the TGI in the assay with DLD-1 colon was determined as 37.3 µM; in the assay on KM20L2 colon it was 36.6 µM; in the assay with LXFL 529 NSCLC it was 32.9 µM; with XF 498 CNS, 28.1 µM.
On to `COc1ccc(OC)c2cc(C3(C)SCCCS3)ccc12`, for which the TGI with DLD-1 colon, in the assay on KM20L2 colon, with LXFL 529 NSCLC, in the assay with SNB-78 CNS and with XF 498 CNS was greater than 100 µM each time.
Consider `Cc1c(CCl)c(=O)oc2c(C)c3occ(CCl)c(=O)c3cc12`, for which the values for the TGI in the assay on KM20L2 colon, in the assay on LXFL 529 NSCLC and in the assay on RXF-631 renal were greater than 100 µM, 30.2 µM and 31.1 µM, respectively.
Consider `O=C(O)/C(Cl)=C(\Cl)C(=O)Nc1ccccc1`, for which the TGI with DLD-1 colon, with KM20L2 colon, in the assay with LXFL 529 NSCLC, in the assay on RXF-631 renal and with SNB-78 CNS was greater than 100 µM throughout.
`CC1C2=CC=C(O2)C(C)(C)C2=CC=C(O2)C(C)(C)C2=CC=C(O2)C(C)(C)C2=CC=C1O2`: the TGI in the assay on KM20L2 colon, in the assay with LXFL 529 NSCLC, in the assay with SNB-78 CNS and in the assay on XF 498 CNS was greater than 100 µM in each case.
With `Cc1cc(C)n(-c2c(O)ccc(O)c2-n2nc(C)cc2C)n1`, the TGI in the assay with DLD-1 colon, in the assay with KM20L2 colon, with LXFL 529 NSCLC, with RXF-631 renal, in the assay on SNB-78 CNS and in the assay on XF 498 CNS was greater than 100 µM each time.
`Nc1nc(N)c(-c2ccc(Cl)cc2)c(CCC(=O)Nc2cccc(C(F)(F)F)c2)n1`: the TGI in the assay with DLD-1 colon, with KM20L2 colon, with LXFL 529 NSCLC, in the assay with RXF-631 renal, with SNB-78 CNS and in the assay with XF 498 CNS was greater than 100 µM in each case.
Turning to `CN=S(=O)(C[C@]1(O)CC2OC1C1OC(C)(C)OC21)c1ccccc1` (some centres undefined), the TGI with KM20L2 colon, in the assay on LXFL 529 NSCLC, in the assay on SNB-78 CNS and in the assay with XF 498 CNS was greater than 100 µM each time.
In the case of `CCN(CC)c1ccc2c(c1)N=C1N=CC=CN1C2(c1ccc(N(C)C)cc1)c1ccc(N(C)C)cc1`, the TGI in the assay on DLD-1 colon came out at 17.9 µM; with KM20L2 colon, 10.2 µM; in the assay with LXFL 529 NSCLC, 12.3 µM; in the assay with RXF-631 renal, 19.4 µM; in the assay on SNB-78 CNS it was 39.5 µM; in the assay on XF 498 CNS, 12.6 µM.
